Measured values reported in paper PMC7519074, “Polar functional group-containing glycolipid CD1d ligands modulate cytokine-biasing responses and prevent experimental colitis” (Scientific Reports, 2020).
Values after ≈ are worked out from the molar mass of the structure shown.

Key:
mCD1d-Fc fusion protein [1] = target: T1, mCD1d-Fc fusion protein (Mus musculus, UniProt P11609); test: Antigen presenting cell (APC)-free assay for lipid binding to mCD1d-Fc; IL-2 release by 2E10 NKT hybridoma cells; type: cell-based; set-up: unit not given here; conditions: mean ± SEM; for IL-2 production: ligand 100 nM, Fig. 3c, d; for IL-2 production (exact values of IL-2): ligand 10 nM, Fig. 3a, b
T1 construct: Ig (mouse immunoglobulin fusion partner); purchased BD Biosciences
T1 sequence (P11609 22-305 limits assumed): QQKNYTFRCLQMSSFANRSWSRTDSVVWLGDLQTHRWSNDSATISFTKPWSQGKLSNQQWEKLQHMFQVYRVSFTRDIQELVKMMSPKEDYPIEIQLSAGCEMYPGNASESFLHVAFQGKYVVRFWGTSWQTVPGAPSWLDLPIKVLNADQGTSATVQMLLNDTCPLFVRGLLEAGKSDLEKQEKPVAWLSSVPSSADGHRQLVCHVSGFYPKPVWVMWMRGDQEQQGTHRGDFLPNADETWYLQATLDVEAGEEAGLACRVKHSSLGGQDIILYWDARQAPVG
T1 sequence (P01887 21-119 partner): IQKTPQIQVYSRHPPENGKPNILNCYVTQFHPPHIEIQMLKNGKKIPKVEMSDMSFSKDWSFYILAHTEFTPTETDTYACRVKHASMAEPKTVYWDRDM
Method: NKT hybridoma 2E10 cells were cultured in RPMI-1640 (NACALAI TESQUE, INC) supplemented with 10% fetal bovine serum (FBS; Biowest), and 1% penicillin–streptomycin (Gibco).
For this assay, 96-well microplates (Bio-one 96-well cell culture plate, Greiner) were coated with mouse CD1d:Ig Fusion protein (BD Biosciences) (0.25 μg/well) in PBS at 37 °C for 24 h. […] After washing, 2E10 NKT hybridoma cells (2.5 × 10^5 cells/well) were added and cultured at 37 °C for 48 h. IL-2 release was measured with an ELISA kit (Affymetrix).

mouse splenocytes = test: Cytokine secretion assay using mouse splenocyte; type: cell-based, C57BL/6 mice; set-up: IFN-γ production / IL-4 production / IL-17A production: unit not given here; conditions: for Relative ratio IL-4/IFN-γ of cytokine production compared to α-GalCer / Relative ratio IL-17A/IFN-γ of cytokine production compared to α-GalCer: 1 nM; for Relative ratio IL-4/IFN-γ of cytokine production compared to α-GalCer: Fig. 5a; for Relative ratio IL-17A/IFN-γ of cytokine production compared to α-GalCer: Fig. 5b; for IL-4 production / IL-17A production / IFN-γ production: 48 h; for cytokine polarization in words: from relative ratios, Fig. 5
Method: Spleen cell suspensions (from C57BL/6 mice) were prepared in complete medium (RPMI 1,640 media supplemented with 10% FBS and 1% penicillin–streptomycin) and seeded into 96-well plates (6.0 × 10^5 cells/well). Lipid ligands were added, and the mixture were incubated at 37 °C for 48 h. IFN-γ, IL-4 and IL-17A release were measured with an ELISA kit (Affymetrix).

Water solubility = type: physicochemical
[2] = Metabolic stability, human liver microsome; type: in vitro ADME; conditions: for half-life: liver microsomes, read-out: metabolic stability (liver microsome, T1/2) human
[3] = Metabolic stability, rat liver microsome; type: in vitro ADME; conditions: for half-life: liver microsomes, read-out: metabolic stability (liver microsome, T1/2) rat
mCD1d-Fc fusion protein [4] = target: T1, mCD1d-Fc fusion protein; set-up: method as in PMID 27648599; conditions: previously reported; cited from earlier work
[5] = Table S1, dash = below the detection limit (< 5 μM) according to b25

CCCCCC/C=C\CCCCCCCCCCCC(=O)N[C@@H](CO[C@H]1O[C@H](CO)[C@H](O)[C@H](O)[C@H]1O)[C@H](O)[C@H](O)CCCCCCCCCCCCCC [9b]
IL-2 production (mCD1d-Fc fusion protein [1]): 925 ± 57

CCCCCCCCCCCCCC[C@@H](O)[C@@H](O)[C@H](CO[C@H]1O[C@H](CO)[C@H](O)[C@H](O)[C@H]1O)NC(=O)CCCCCCCCCCCNCCCCCCC [6b]
IL-2 production (exact values of IL-2) (mCD1d-Fc fusion protein [1]): 74 ± 26
Relative ratio IL-4/IFN-γ of cytokine production compared to α-GalCer (mouse splenocytes): 18.3 ± 6.8
Relative ratio IL-17A/IFN-γ of cytokine production compared to α-GalCer (mouse splenocytes): 66.7 ± 27.4
IL-4 production (mouse splenocytes; 10 nM ligand, Fig. 4e): 513 ± 11
IL-17A production (mouse splenocytes; 10 nM ligand, Fig. 4f): 990 ± 101
IFN-γ production (mouse splenocytes; 10 nM ligand, Fig. 4d): 3,764 ± 450
cytokine polarization in words (mouse splenocytes): IL-4- and IL-17A-biasing properties

CCCCCCCCCCCCCC[C@@H](O)[C@@H](O)[C@H](CO[C@H]1O[C@H](CO)[C@H](O)[C@H](O)[C@H]1O)NC(=O)CCCCCCCCCCCCC(=O)CCCCCC [7b]
IL-2 production (exact values of IL-2) (mCD1d-Fc fusion protein [1]): 600 ± 20
Relative ratio IL-4/IFN-γ of cytokine production compared to α-GalCer (mouse splenocytes): 12.7 ± 4.0
Relative ratio IL-17A/IFN-γ of cytokine production compared to α-GalCer (mouse splenocytes): 48.6 ± 15.6
IL-4 production (mouse splenocytes; 10 nM ligand, Fig. 4e): 448 ± 40
IL-17A production (mouse splenocytes; 10 nM ligand, Fig. 4f): 656 ± 69
IFN-γ production (mouse splenocytes; 10 nM ligand, Fig. 4d): 4,276 ± 261
cytokine polarization in words (mouse splenocytes): IL-4- and IL-17A-biasing properties

CCCCCC/C=C/CCCCCCCCCCCC(=O)N[C@@H](CO[C@H]1O[C@H](CO)[C@H](O)[C@H](O)[C@H]1O)[C@H](O)[C@H](O)CCCCCCCCCCCCCC [8b]
IL-2 production (mCD1d-Fc fusion protein [1]): 334 ± 19

CCCCCCCCCCCC/C=C/CCCCCCCCCCCC(=O)N[C@@H](CO[C@H]1O[C@H](CO)[C@H](O)[C@H](O)[C@H]1O)[C@H](O)[C@H](O)CCCCCCCCCCCCCC [8a]
IL-2 production (mCD1d-Fc fusion protein [1]): 1626 ± 371

CCCCCCCCCCCCCC[C@@H](O)[C@@H](O)[C@H](CO[C@H]1O[C@H](CO)[C@H](O)[C@H](O)[C@H]1O)NC(=O)CCCCCCCCCCCNC(=O)NCCCCC [5b]
IL-2 production (exact values of IL-2) (mCD1d-Fc fusion protein [1]): 376 ± 92
IL-4 production (mouse splenocytes; 10 nM ligand, Fig. 4e): 723 ± 73
IL-17A production (mouse splenocytes; 10 nM ligand, Fig. 4f): 1774 ± 278
IFN-γ production (mouse splenocytes; 10 nM ligand, Fig. 4d): 10,799 ± 950

CCCCCCCCCCCCCC[C@@H](O)[C@@H](O)[C@H](CO[C@H]1O[C@H](CO)[C@H](O)[C@H](O)[C@H]1O)NC(=O)CCCCCCCCCCCNC(=O)NCCCCCCCCCCC [5a]
IL-2 production (exact values of IL-2) (mCD1d-Fc fusion protein [1]): 85 ± 26

CCCCCCCCCCCCCC[C@@H](O)[C@@H](O)[C@H](CO[C@H]1O[C@H](CO)[C@H](O)[C@H](O)[C@H]1O)NC(=O)CCCCCCCCCCCNCCCCCCCCCCCCC [6a]
IL-2 production (exact values of IL-2) (mCD1d-Fc fusion protein [1]): 323 ± 41
IFN-γ production (mouse splenocytes; 1 nM ligand, Fig. 4a): 8,515 ± 1,016
IL-4 production (mouse splenocytes; 1 nM ligand, Fig. 4b): 286 ± 12
solubility (Water solubility; [5]): < 5 µM
metabolic stability in words [2]: good metabolic stability
half-life [2]: > 200 min
metabolic stability in words [3]: good metabolic stability
half-life [3]: > 200 min

CCCCCCCCCCCCCC[C@@H](O)[C@@H](O)[C@H](CO[C@H]1O[C@H](CO)[C@H](O)[C@H](O)[C@H]1O)NC(=O)CCCCCCCCCCCCC(=O)CCCCCCCCCCCC [7a]
IL-2 production (exact values of IL-2) (mCD1d-Fc fusion protein [1]): 424 ± 32

CCCCCCCCCCCC/C=C\CCCCCCCCCCCC(=O)N[C@@H](CO[C@H]1O[C@H](CO)[C@H](O)[C@H](O)[C@H]1O)[C@H](O)[C@H](O)CCCCCCCCCCCCCC [9a]
IL-2 production (mCD1d-Fc fusion protein [1]): 1556 ± 91

CCCCCCCCCCCCCC[C@@H](O)[C@@H](O)[C@H](CO[C@H]1O[C@H](CO)[C@H](O)[C@H](O)[C@H]1O)NC(=O)CCCCCCCCCCCN(C)C(=O)CCCCCCCCCCCC [4a]
IL-2 production (exact values of IL-2) (mCD1d-Fc fusion protein [1]): 749 ± 92
IFN-γ production (mouse splenocytes; 1 nM ligand, Fig. 4a): 39,159 ± 4,960
IL-4 production (mouse splenocytes; 1 nM ligand, Fig. 4b): 599 ± 13
solubility (Water solubility; [5]): < 5 µM
metabolic stability in words [2]: metabolized more rapidly
half-life [2]: 15 min
metabolic stability in words [3]: metabolized more rapidly
half-life [3]: 23 min

CCCCCCCCCCCCCC[C@@H](O)[C@@H](O)[C@H](CO[C@H]1O[C@H](CO)[C@H](O)[C@H](O)[C@H]1O)NC(=O)CCCCCCCCCCCNC(=O)CCCCCC [1b]
IL-2 production (exact values of IL-2) (mCD1d-Fc fusion protein [1]): 662 ± 46
IFN-γ production (mouse splenocytes; 1 nM ligand, Fig. S2a): 822 ± 11
IL-17A production (mouse splenocytes; 1 nM ligand, Fig. S2c): 976 ± 207
Relative ratio IL-4/IFN-γ of cytokine production compared to α-GalCer (mouse splenocytes): 5.04 ± 0.90
Relative ratio IL-17A/IFN-γ of cytokine production compared to α-GalCer (mouse splenocytes): 6.43 ± 1.27
cytokine polarization in words (mouse splenocytes): IL-4- and IL-17A-biasing properties
solubility (Water solubility; detection limit 5 μM): 5 µM (≈ 3.95 µg/mL)
metabolic stability in words [2]: good metabolic stability
half-life [2]: > 200 min
metabolic stability in words [3]: good metabolic stability
half-life [3]: > 200 min
cytokine production / agonistic activity relative to α-GalCer, in words (mCD1d-Fc fusion protein [4]): higher levels of cytokine production relative to that caused by α-GalCer

CCCCCCCCCCCCCC[C@@H](O)[C@@H](O)[C@H](CO[C@H]1O[C@H](CO)[C@H](O)[C@H](O)[C@H]1O)NC(=O)CCCCCCCCCCCNC(=O)CCCCCCCCCCCC [1a]
IL-2 production (exact values of IL-2) (mCD1d-Fc fusion protein [1]): 177 ± 27
IL-2 production (mCD1d-Fc fusion protein [1]): 2,502 ± 114
IFN-γ production (mouse splenocytes; 1 nM ligand, Fig. 4a): 16,907 ± 3,679
IL-4 production (mouse splenocytes; 1 nM ligand, Fig. 4b): 247 ± 19
IFN-γ production (mouse splenocytes; 1 nM ligand, Fig. S2a): 9,152 ± 373
IL-4 production (mouse splenocytes; 1 nM ligand, Fig. S2b): 232 ± 41
IL-17A production (mouse splenocytes; 1 nM ligand, Fig. S2c): 1,276 ± 60
Relative ratio IL-4/IFN-γ of cytokine production compared to α-GalCer (mouse splenocytes): 1.27 ± 0.23
Relative ratio IL-17A/IFN-γ of cytokine production compared to α-GalCer (mouse splenocytes): 0.76 ± 0.06
cytokine polarization in words (mouse splenocytes): relatively less selective cytokine responses
solubility (Water solubility; [5]): < 5 µM
metabolic stability in words [2]: good metabolic stability
half-life [2]: 60 min
metabolic stability in words [3]: good metabolic stability
half-life [3]: 47 min
cytokine production / agonistic activity relative to α-GalCer, in words (mCD1d-Fc fusion protein [4]): higher levels of cytokine production relative to that caused by α-GalCer

CCCCCCCCCCCCCCCCCCCC(=O)N[C@@H](CO[C@H]1O[C@H](CO)[C@H](O)[C@H](O)[C@H]1O)[C@H](O)[C@H](O)CCCCCCCCCCCCCC [C20:0-α-GalCer, reference compound]
IL-4 production (mouse splenocytes; 10 nM ligand, Fig. 4e): 85 ± 52
IL-17A production (mouse splenocytes; 10 nM ligand, Fig. 4f): 696 ± 38
IFN-γ production (mouse splenocytes; 10 nM ligand, Fig. 4d): 1,353 ± 731

CCCCCCCCCCCCCC[C@@H](O)[C@@H](O)[C@H](CO[C@H]1O[C@H](CO)[C@H](O)[C@H](O)[C@H]1O)NC(=O)CCCCCCCCCCCN(C)C(=O)CCCCCC [4b]
IL-2 production (exact values of IL-2) (mCD1d-Fc fusion protein [1]): 546 ± 87
IL-4 production (mouse splenocytes; 10 nM ligand, Fig. 4e): 743 ± 11
IL-17A production (mouse splenocytes; 10 nM ligand, Fig. 4f): 2095 ± 190
IFN-γ production (mouse splenocytes; 10 nM ligand, Fig. 4d): 17,753 ± 542
